These results are taken from article PMC10229426, “An optimized bioluminescent substrate for non-invasive imaging in the brain” (Nature Chemical Biology, 2023).

Details of data set [1]: method as in doi:10.1134/S1068162018020085. To be noted: cited from earlier work.
Data set [2] can be described thus: Toxicity in mice: necropsy and histopathology. It counts as in vivo, C57BL/6 mice. Further details: key: 0: absent; 1: minimal; 2: mild; 3: moderate; 4: severe. The settings on record: individual mice. The protocol: Male C57BL/6 mice of 2 months of age were killed by CO2 asphyxiation and cardiac exsanguination. All mice were weighed, and a complete gross examination of the external and internal organs was performed. […] Formalin-fixed tissues were processed routinely, embedded in paraffin, sectioned at 5 μm and stained with hematoxylin and eosin. All slides were blindly evaluated for histologic treatment-related effects (Supplementary Table 1) by a board-certified veterinary pathologist.

The next data set concerns the target T1, Antares luciferase (Oplophorus gracilirostris, UniProt Q9GV45, A31E/A60N/A81I/F95D/I117V/K70R/L54V/L99Q/M102K/N193R/P142E/Q151K/Q38R/Q45L/V71I/Y165I).
T1 construct: expressed in transfected cells; host or cells: transgenic mice with CAG-LSL-Antares at the H11 locus, crossed to Cre driver lines (neurons or liver)
Description: Non-invasive detection of Antares in the liver (Alb-cre driver). It counts as in vivo, mouse. To be noted: 1.3 µmol i.p. The source says:
Transgenic reporter mice with LSL-CAG-luciferase (Antares, FLuc or AkaLuc) inserted at the H11 locus (H11P) were generated by φC31-mediated recombination in blastocysts[48] by the Stanford Transgenic, Knockout and Tumor Model Center. For substrate comparisons, 2- to 4-month-old transgenic mice doubly hemizygous for a Camk2a-cre (Jackson Laboratory, 005359), Vgat-IRES-cre (Jackson Laboratory), Vglut2-IRES-cre (Jackson Laboratory, 016963) or Alb-cre (Jackson Laboratory, 003574) driver and a CAG-LSL-Antares, CAG-LSL-AkaLuc or CAG-LSL-FLuc reporter were anesthetized by inhalation of isoflurane for 5 min. An electric shaver was used to remove scalp hair in Camk2a-cre, Vglut2-IRES-cre or Vgat-IRES-cre mice or abdominal hair in Alb-cre mice. Nair depilatory cream (Church and Dwight) was then applied to the shaved area for 1 min, and remaining hair was removed with a piece of sterile gauze. […]
For mice expressing Antares, indicated amounts of Fz were dissolved in 480 µl of a PEG-300-based formulation consisting of 10% glycerol, 10% ethanol, 10% hydroxypropylcyclodextrin and 35% PEG-300 in water, or indicated amounts of lyophilized Fz analogs with P-407 vehicle were reconstituted in 150–500 µl of DPBS buffer. […] Integrated luminescence was quantified using the Fiji version of the ImageJ program (NIH)[49], with further statistical analysis performed in GraphPad Prism (version 9.0.0).

The next data set deals with Antares (Oplophorus gracilirostris, UniProt Q9GV45, A31E/A60N/A81I/F95D/I117V/K70R/L54V/L99Q/M102K/N193R/P142E/Q151K/Q38R/Q45L/V71I/Y165I). Put plainly: Comparison of bioluminescence in luciferase-transduced (AAV) mouse brain hippocampus. It counts as in vivo, J:NU mice. Also noted: P2A-mNeonGreen (self-cleaving; mNeonGreen is separated and a P2A remnant stays on Antares) (C); expressed in transfected cells; host or cells: hippocampus of J:NU mice transduced with AAV.DJ. An excerpt:
For AAV packaging, pAAV-CMV-AkaLuc-P2A-mNeonGreen-WPRE plasmid and pAAV-CMV-Antares-P2A-mNeonGreen-WPRE were amplified and purified by a PureLink Expi endotoxin-free maxi plasmid purification kit (Invitrogen) and were sent to Stanford Gene Vector and Virus Core to produce and titer AAV.DJ vectors. Under sterile conditions, 12-week-old male J:NU mice (Jackson Laboratory, 007850) were anesthetized with isoflurane and secured in a stereotaxic frame (RWD Life Science), and a hole the size of the needle was drilled through the skull. A Hamilton syringe with a 33-gauge needle was inserted at anteroposterior −2.2 mm, mediolateral +1.7 mm and dorsoventral −1.7 mm. […] The needle was left in place for 3 min after each injection to minimize upward flow of viral solution. Two to 3 weeks after AAV infection, mice were injected i.p. with the indicated amount of CFz, Akalumine or FFz and imaged on the Ami HT (binning of 1 × 1 and exposure time of 10 s).

Entries after “also recorded” stand apart in the source; their conditions may differ. Read-outs that look alike come from different tables or passages of the source.

Sequence of Antares (Q9GV45 other isoform, or with tags, fused parts or gaps with the stated changes): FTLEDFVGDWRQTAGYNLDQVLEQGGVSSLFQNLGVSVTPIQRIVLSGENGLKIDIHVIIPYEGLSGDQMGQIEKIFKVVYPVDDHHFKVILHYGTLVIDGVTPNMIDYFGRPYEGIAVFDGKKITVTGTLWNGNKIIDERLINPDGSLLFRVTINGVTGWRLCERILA
T1 sequence (Q9GV45 other isoform, or with tags, fused parts or gaps with the stated changes): as above

As for `O=c1c(Cc2ccco2)nc2c(Cc3ccccc3)[nH]c(-c3ccccc3)cn1-2` [Fz, furimazine, reference compound], the “toxicity of daily i.v. injection” value is “minimal toxicity” in data set [1] (20 µg i.v. per day); “caused liver and lung damage” in data set [1] (60 µg (0.16 µmol) i.v. daily for 7 d).

Consider `O=c1c(Cc2ccco2)nc2c(Cc3ccccc3)[nH]c(-c3cccc(F)c3F)cn1-2` [compound 6, cephalofurimazine], for which the “HPMC, heart perivascular myxomatous change score” value is 0 in data set [2] (1 day, 4.2 µmol, 20 mg P-407); 0 in data set [2] (3 days, 1.3 µmol, 12 mg P-407); 0 in data set [2] (3 days, 4.2 µmol, 20 mg P-407); 0 in data set [2] (5 days, 1.3 µmol, 12 mg P-407). In addition, the “HT, heart telangiectasia score” value is on record as 0 in data set [2] (1 day, 4.2 µmol, 20 mg P-407); 0 in data set [2] (3 days, 1.3 µmol, 12 mg P-407); 0 in data set [2] (5 days, 1.3 µmol, 12 mg P-407). Also, the “KCHMV, Kupffer cell hyperplasia and microvesicular vacuolation score” value is recorded as 0 in data set [2] (1 day, 4.2 µmol, 20 mg P-407) and 0 in data set [2] (3 days, 1.3 µmol, 12 mg P-407). Moreover, on Antares luciferase, the “liver signal, 6 versus FFz” value is reported as “threefold dimmer than FFz”. In addition, the “peak signal relative to 3.0 µmol of AkaLumine” value on Antares (1.3 µmol CFz i.p., Antares and AkaLuc AAV co-infected hippocampus) was “comparable peak signal”. For the same compound, the “brightness relative to 3 µmol of AkaLumine” value at Antares (CFz dose 3 µmol i.p., Antares and AkaLuc AAV co-infected hippocampus, listed as CFz) is “threefold more signal; also recorded: about threefold higher”. Moreover, on Antares (i.p., Antares AAV in hippocampus), the “brightness relative to FFz” value is recorded as “brighter than FFz by at least an order of magnitude”.
